In patent publication US11447486B2, “2-amino-benzimidazole derivatives and their use as 5-lipoxygenase and/or prostaglandin E synthase inhibitors” (INSTITUT PASTEUR KOREA, priority 2014, dated 2022):

How the values were obtained:
[1] = test system: Rat basophilic leukemia (RBL) cells; test: LTB4 secretion assay in RBL (rat basophilic leukemia cells); assay type: cell-based; conditions: Rattus norvegicus, RBL
In short: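 Cells seeded 2×10^4/well the day before, then pre-incubated 15 min at 37 °C in EMEM/0.5% FBS with compound (5 nM to 100 uM). Stimulation with 2.5 uM arachidonic acid plus 5 uM A23187 (final) for 10 min at 37 °C; LTB4 in supernatant quantified by EIA.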

human 5-LOX = biological target: T1, human 5-LOX (Homo sapiens, UniProt P09917); test: 5-LOX enzyme activity, fluorescence method (5-HPETE, H2DCFDA); assay type: biochemical; conditions: read-out: 5-LO (IC50)
T1 construct: purchased Cayman 60402; host or cells: insect cells (lysate)
T1 sequence (P09917 1-674): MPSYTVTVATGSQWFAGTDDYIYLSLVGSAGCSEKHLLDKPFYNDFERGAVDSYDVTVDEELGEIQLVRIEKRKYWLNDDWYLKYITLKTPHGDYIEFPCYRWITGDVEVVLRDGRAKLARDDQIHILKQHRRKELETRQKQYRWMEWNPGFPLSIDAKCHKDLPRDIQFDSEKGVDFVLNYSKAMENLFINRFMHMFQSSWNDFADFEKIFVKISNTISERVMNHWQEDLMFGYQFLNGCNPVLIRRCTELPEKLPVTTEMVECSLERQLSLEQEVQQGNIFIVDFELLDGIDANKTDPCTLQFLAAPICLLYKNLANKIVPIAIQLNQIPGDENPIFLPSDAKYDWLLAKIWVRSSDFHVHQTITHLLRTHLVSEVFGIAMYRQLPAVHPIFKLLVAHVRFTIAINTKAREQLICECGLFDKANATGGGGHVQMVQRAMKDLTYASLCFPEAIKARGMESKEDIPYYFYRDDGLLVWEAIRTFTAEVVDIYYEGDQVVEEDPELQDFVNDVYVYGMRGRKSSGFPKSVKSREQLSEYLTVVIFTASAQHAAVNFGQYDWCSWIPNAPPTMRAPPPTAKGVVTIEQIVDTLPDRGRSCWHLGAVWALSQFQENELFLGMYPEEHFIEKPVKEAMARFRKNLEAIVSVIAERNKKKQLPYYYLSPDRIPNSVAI
In short: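 Compound (0.5 nM to 10 uM) pre-incubated 5 min with enzyme; reaction started with ATP (100 uM final) and arachidonic acid (3 uM final). All steps at room temperature, fluorescence read-out.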

Row | EC50 [1] | IC50 (human 5-LOX) | Compound
1 | < 10 µM | < 1 µM | Cn1c(NCc2ccc(Oc3ncc(Cl)cn3)cc2)nc2ccc(NCc3ncccn3)cc21 [Compound 365]
2 | < 10 µM | < 1 µM | Cn1c(NCc2ccc(Oc3ncc(Cl)cn3)cc2)nc2ccc(NC3CSC3)cc21 [Compound 366]
3 | 10 to 20 µM | < 1 µM | Cn1c(NCc2ccc(Oc3ccncn3)cc2)nc2ccc(N)cc21 [Compound 370]
4 | < 10 µM | < 1 µM | Cn1c(NCc2ccc(Oc3ncc(Cl)cn3)cc2)nc2ccc(NCC(O)c3ccc(F)cc3)cc21 (centres unmarked) [Compound 372]
5 | < 10 µM | < 1 µM | Cn1c(NCc2ccc(Oc3ccnc4cc(Cl)ccc34)cc2)nc2ccc(N)cc21 [Compound 375]
6 | > 20 µM | < 1 µM | Cn1c(NCc2ccc(Oc3ncc(N)cn3)cc2)nc2ccc(N)cc21 [Compound 376]
7 | < 10 µM | < 1 µM | Cn1c(NCc2ccc(Oc3ccc(OC(F)(F)F)cn3)cc2)nc2ccc(N)cc21 [Compound 377]
8 | < 10 µM | < 1 µM | Cn1c(NCc2ccc(Oc3ncc(Cl)cn3)cc2)nc2ccc(NCCN3CCOCC3)cc21 [Compound 379]
9 | < 10 µM | < 1 µM | Cn1c(NCc2ccc(Oc3ncc(Cl)cn3)cc2F)nc2ccc(N)cc21 [Compound 380]
10 | < 10 µM | < 1 µM | Cn1c(NCc2ccc(Oc3ccc4cc(F)ccc4n3)cc2)nc2ccc(N)cc21 [Compound 382]
11 | < 10 µM | < 1 µM | Cn1c(NCc2ccc(Oc3ccnc4cc(Cl)ccc34)cc2)nc2ccc(NC3COC3)cc21 [Compound 384]
12 | 10 to 20 µM | < 1 µM | Cc1cc(Oc2ncc(Cl)cn2)cc(C)c1CNc1nc2ccc(N)cc2n1C [Compound 385]
13 | > 20 µM | 1 to 10 µM | Cn1c(NCc2ccc(Oc3ncc(Cl)cn3)cc2)nc2ccc(NC3C[S+]([O-])C3)cc21 (centres unmarked) [Compound 386]
14 | < 10 µM | < 1 µM | Cn1c(NCc2ccc(Oc3ccnc4c(Cl)cccc34)cc2)nc2ccc(N)cc21 [Compound 387]
15 | 10 to 20 µM | < 1 µM | Cn1c(NCc2ccc(Oc3ccnc4c(Cl)cccc34)cc2)nc2ccc(NC3COC3)cc21 [Compound 388]
16 | < 10 µM | < 1 µM | Cn1c(NCc2ccc(Oc3ccc4cc(Cl)ccc4n3)cc2)nc2ccc(N)cc21 [Compound 389]
17 | < 10 µM | < 1 µM | Cn1c(NCc2ccc(Oc3ccc4cc(Cl)ccc4n3)cc2)nc2ccc(NC3COC3)cc21 [Compound 390]
18 | < 10 µM | < 1 µM | Cn1c(NCc2ccc(Oc3ncc(Cl)cn3)c(Cl)c2)nc2ccc(N)cc21 [Compound 391]
19 | < 10 µM | < 1 µM | Cn1c(NCc2ccc(Oc3cc(Cl)ncn3)cc2)nc2ccc(N)cc21 [Compound 393]
20 | < 10 µM | < 1 µM | CC(C)c1cc(CNc2nc3ccc(N)cc3n2C)ccc1Oc1ncc(Cl)cn1 [Compound 395]

Row | EC50 [1] | IC50 (human 5-LOX) | Compound
21 | < 10 µM | < 1 µM | CC(C)c1cc(CNc2nc3ccc(NC4COC4)cc3n2C)ccc1Oc1ncc(Cl)cn1 [Compound 396]
22 | < 10 µM | < 1 µM | Cn1c(NCc2ccc(Oc3ncc(Cl)c(C4CC4)n3)cc2)nc2ccc(N)cc21 [Compound 397]
23 | < 10 µM | < 1 µM | Cn1c(NCc2ccc(Oc3ncc(Cl)c(C4CC4)n3)cc2)nc2ccc(NC3COC3)cc21 [Compound 398]
24 | < 10 µM | < 1 µM | Cn1c(NCc2ccc(Oc3ncc(Cl)c4ccccc34)cc2)nc2ccc(N)cc21 [Compound 399]
25 | < 10 µM | < 1 µM | Cn1c(NCc2ccc(Oc3ncc(Cl)c4ccccc34)cc2)nc2ccc(NC3COC3)cc21 [Compound 400]
26 | < 10 µM | < 1 µM | Cn1c(NCc2ccc(Oc3ccc(Cl)cn3)cc2)nc2ccc(NC3CNC3)cc21 [Compound 401]
27 | < 10 µM | < 1 µM | Cn1c(NCc2ccc(Oc3nc4cc(Cl)ccc4o3)cc2)nc2ccc(N)cc21 [Compound 402]
28 | < 10 µM | < 1 µM | Cn1c(NCc2ccc(Oc3nc4cc(Cl)ccc4o3)cc2)nc2ccc(NC3COC3)cc21 [Compound 403]
29 | > 20 µM | < 1 µM | Cn1c(NCc2ccc(Oc3ccc(Cl)cn3)cc2)nc2ccc(NC3CN(C(N)=O)C3)cc21 [Compound 404]
30 | < 10 µM | < 1 µM | Cn1c(NCc2ccc(Oc3ncc4cc(Cl)ccc4n3)cc2)nc2ccc(N)cc21 [Compound 405]
31 | < 10 µM | < 1 µM | Cn1c(NCc2ccc(Oc3ncc4cc(Cl)ccc4n3)cc2)nc2ccc(NC3COC3)cc21 [Compound 406]
32 | < 10 µM | < 1 µM | Cn1c(NCc2ccc(Oc3ncc(Cl)cn3)cc2)nc2ccc(NC3CNC3)cc21 [Compound 407]
33 | > 20 µM | < 1 µM | Cn1c(NCc2ccc(Oc3ncc(Cl)cn3)cc2)nc2ccc(NC3CN(C(N)=O)C3)cc21 [Compound 408]
34 | < 10 µM | < 1 µM | Cn1c(NCc2ccc(Oc3ncc(OC(F)(F)F)cn3)cc2)nc2ccc(N)cc21 [Compound 410]
35 | > 20 µM | < 1 µM | Cc1cc(CNc2nc3ccc(N)cc3n2C)cc(C)c1Oc1ncc(Cl)cn1 [Compound 411]
36 | < 10 µM | < 1 µM | Cn1c(NCc2ccc(Oc3ccc4ccc(Cl)cc4n3)cc2)nc2ccc(N)cc21 [Compound 419]
37 | < 10 µM | < 1 µM | Cn1c(NCc2ccc(Oc3ccc4ccc(Cl)cc4n3)cc2)nc2ccc(NC3COC3)cc21 [Compound 420]
38 | < 10 µM | < 1 µM | Cn1c(NCc2ccc(Oc3ccc4cccc(Cl)c4n3)cc2)nc2ccc(N)cc21 [Compound 421]
39 | < 10 µM | < 1 µM | Cn1c(NCc2ccc(Oc3ccc4cccc(Cl)c4n3)cc2)nc2ccc(NC3COC3)cc21 [Compound 422]
40 | < 10 µM | < 1 µM | Cn1c(NCc2ccc(Oc3ccc4c(Cl)cccc4n3)cc2)nc2ccc(N)cc21 [Compound 424]

Row | EC50 [1] | IC50 (human 5-LOX) | Compound
41 | < 10 µM | < 1 µM | Cn1c(NCc2ccc(Oc3cnc4cc(Cl)ccc4n3)cc2)nc2ccc(NC3COC3)cc21 [Compound 427]
42 | < 10 µM | < 1 µM | Cn1c(NCc2ccc(Oc3nc4ccc(Cl)cc4n3C)cc2)nc2ccc(N)cc21 [Compound 428]
43 | 10 to 20 µM | > 10 µM | Cn1c(NCc2ccc(Oc3ncc(Cl)cn3)cc2)nc2ccc(NC(N)=O)cc21 [Compound 429]
44 | < 10 µM | < 1 µM | Cn1c(NCc2cc(Cl)c(Oc3ncc(Cl)cn3)cc2Cl)nc2ccc(N)cc21 [Compound 432]
45 | < 10 µM | < 1 µM | Cn1c(NCc2ccc(Oc3ncc4c(Cl)cccc4n3)cc2)nc2ccc(N)cc21 [Compound 434]
46 | < 10 µM | < 1 µM | Cn1c(NCc2ccc(Oc3ncc4c(Cl)cccc4n3)cc2)nc2ccc(NC3COC3)cc21 [Compound 435]
47 | < 10 µM | < 1 µM | Cn1c(NCc2ccc(Oc3ncc4cccc(Cl)c4n3)cc2)nc2ccc(N)cc21 [Compound 436]
48 | < 10 µM | < 1 µM | Cn1c(NCc2ccc(Oc3ncc4cccc(Cl)c4n3)cc2)nc2ccc(NC3COC3)cc21 [Compound 437]
49 | 10 to 20 µM | < 1 µM | Cn1c(NCc2ccc(Oc3nccc4cc(Cl)ccc34)cc2)nc2ccc(N)cc21 [Compound 438]
50 | 10 to 20 µM | < 1 µM | Cn1c(NCc2ccc(Oc3nccc4cc(Cl)ccc34)cc2)nc2ccc(NC3COC3)cc21 [Compound 439]
51 | < 10 µM | < 1 µM | Cn1c(NCc2ccc(Oc3ncc4ccc(Cl)cc4n3)cc2)nc2ccc(N)cc21 [Compound 440]
52 | > 20 µM | > 10 µM | Cn1c(NCc2ccc(Oc3ncc(Cl)cn3)cc2)nc2ccc(NC(=N)N)cc21 [Compound 441]
53 | < 10 µM | < 1 µM | Cn1c(NCc2ccc(Oc3cn4ccc(Cl)cc4n3)cc2)nc2ccc(N)cc21 [Compound 442]
54 | > 20 µM | < 1 µM | Cn1c(NCc2ccc(Oc3ncc(Cl)cn3)cc2)nc2ccc(NC3CN(C(=N)N)C3)cc21 [Compound 443]
55 | 10 to 20 µM | < 1 µM | Cn1c(NCc2ccc(Oc3ncc4ccc(Cl)cc4n3)cc2)nc2ccc(NC3COC3)cc21 [Compound 444]
56 | < 10 µM | < 1 µM | Cn1c(NCc2ccc(-n3ccc4cc(Cl)cnc43)cc2)nc2ccc(N)cc21 [Compound 445]
57 | < 10 µM | < 1 µM | Cn1c(NCc2ccc(-n3ccc4cc(Cl)cnc43)cc2)nc2ccc(NC3COC3)cc21 [Compound 446]
58 | < 10 µM | < 1 µM | Cn1c(NCc2ccc3c(ccn3-c3ccc(Cl)cn3)c2)nc2ccc(N)cc21 [Compound 451]
